Results as given in US9468209B2, “Method for eradicating weeds with derivatives of 3-acetyl-5-sec-butyl-4-hydroxy-3-pyrrolin-2-one” (priority 2012, dated 2016).

Columns and labels:
[1] = tested on: fluorescence of chlorophyll; assay: Fluorescence of chlorophyll of treated Crofton weed leaves; format: biochemical; settings: 50 μg/mL, strong light 12 hours
Procedure: (§1) Compounds 10-57 were dissolved in small amount of methanol. The solutions were then diluted with distilled water to a concentration of 50 μg/mL. A mixture of methanol and water in the same ratio as the sample solution was also prepared and used as control in the experiment. The healthy leaves of Crofton weed were washed in water for 30 minutes and then rinsed with distilled water. The clean and tissue dried leaves were placed in petri dish with the back-side of the leaves facing up. Wet filter paper was also placed in the in petri dish for moisture control. Water, methanol and chemical solutions of the analogues were applied to the back-side of each leaf. Test sample was then placed in vacuum chamber at 25° C. for 15 min followed by exposure to the strong light (400 μM m^−2 s^−1) for 12 hours. The leaf sample went through a series of test, and the Hill reaction rate, the electron transfer activity and fluorescence of chlorophyll were measured. Four leaves were used for each treatment and each test was repeated three times.

photosystem II = assay: PSII oxygen evolution / electron transfer activity of treated Crofton weed leaves; format: biochemical; settings: 50 μg/mL, strong light 12 hours
Procedure: as §1

Crofton weed = assay: Needle puncture pathogenic test on slightly wounded leaf of Crofton weed; format: in vivo; settings: for Avg. diameter of the spot after 24 h / Time of disease spot to occur / Time of Disease spot / Average diameter of spot after 24 h: Crofton weed leaf; for Avg. diameter of the spot after 24 h / Time of disease spot to occur: analogs with formula (I) and (II); for Time of Disease spot / Average diameter of spot after 24 h / Time / Average diameter of the damage spot after 24 h: 50 μg/mL, 25° C., natural light; for Time / Average diameter of the damage spot after 24 h: salts, Crofton weed
Procedure: 3-acetyl-5-sec-butyl-4-hydroxy-3-pyrrolin-2-one analogs were dissolved in a small amount of methanol and diluted with water to a concentration of 5-100 μg/g. A pathogenic test was conducted by placing the toxic liquid on the slightly wounded leaf of Crofton weed with a needle. The test has shown that the pathogenic capability of 3-acetyl-5-sec-butyl-4-hydroxy-3-pyrrolin-2-one analogs with respect to Crofton weed increases with the increase of concentration. The spot diameter caused on the leaf of Crofton weed after 24 hours was 2 mm at 50 μg/g.
3-acetyl-5-sec-butyl-4-hydroxy-3-pyrrolin-2-one analogue (Table 3, compounds 10-57) was dissolved in small amount of methanol. The solution was then diluted with distilled water to a concentration of 50 μg/mL. Methanol solution with same concentration and pure distilled water were used as control of the experiment. A pathogenic test was conducted by placing the toxic liquid on the slightly wounded leaf of Crofton weed with a needle. The experiment was carried out at 25° C. under the natural light and each test was repeated 6 times. It was measure the diameter of the spot after 24 h. […] The size of the side chain also has an effect on their activity.
Fourteen salts of 3-acetyl-5-sec-butyl-4-hydroxy-3-pyrrolin-2-one analogs were dissolved in small amount of methanol and diluted with distilled water to a concentration of 50 μg/mL. Methanol/water mixture was also prepared and used as control. Needle puncture method was used for the test on the small pieces of Crofton weed. Each treatment was repeated six times or more. The test samples were kept under natural light at 25° C. for 24 hours. The diameters of damaged spot of the plant leaves were measured by vernier caliper.

Hill reaction = Hill reaction activity of treated Crofton weed leaves; format: biochemical; settings: 50 μg/mL, strong light 12 hours
Procedure: as §1

| Compound | Fv/Fm [1] | PSII Activity of oxygen evolution (photosystem II) [uMO2/mgChlh] | Avg. diameter of the spot after 24 h (Crofton weed) [mm] | Time of disease spot to occur (Crofton weed) [h] | Activity of Hill Reaction (Hill reaction) [uMO2/mgChlh] | Time of Disease spot (Crofton weed) [h] | Average diameter of spot after 24 h (Crofton weed) [mm] | Time (Crofton weed) [h] | Average diameter of the damage spot after 24 h (Crofton weed) [mm] |
| --- | --- | --- | --- | --- | --- | --- | --- | --- | --- |
| CCC1=C(O)C(C(C)CC)NC1=O (centres unmarked) [Compound 4] | 0.83 | 28.01 | 2.97 ± 0.01 | 18.5 ± 1.55 | 51.13 |  |  |  |  |
| CCOC1=C(O)C(C(C)CC)NC1=O (centres unmarked) [Compound 5] | 0.82 | 24.10 | 2.35 ± 0.14 | 20.7 ± 0.75 | 52.31 |  |  |  |  |
| CCC(C)C1NC(=O)C(CCc2ccccc2)=C1O (centres unmarked) [Compound 6] | 0.81 | 27.11 | 2.12 ± 0.08 | 21.2 ± 3.85 | 50.04 |  |  |  |  |
| CCC(C)C1NC(=O)C(NCCCCl)=C1O (centres unmarked) [Compound 8] | 0.79 | 24.65 | 2.53 ± 0.18 | 20.0 ± 1.51 | 49.05 |  |  |  |  |
| CCC(=O)NC1=C(O)C(C(C)CC)NC1=O (centres unmarked) [Compound 9] | 0.83 | 23.33 | 2.80 ± 0.33 | 21.9 ± 2.00 | 50.12 |  |  |  |  |
| CC(=O)C1=C(O)CNC1=O [Compound 10] | 0.79 | 47.55 |  |  | 84.32 | 29 ± 6.30 | 1.11 ± 0.16 |  |  |
| CC(=O)C1=C(O)C(C)NC1=O (centres unmarked) [Compound 11] | 0.82 | 46.41 |  |  | 80.00 | 21.5 ± 0 | 1.80 ± 0.41 |  |  |
| CCC1NC(=O)C(C(C)=O)=C1O (centres unmarked) [Compound 12] | 0.83 | 34.54 |  |  | 70.32 | 15.2 ± 0.35 | 2.77 ± 0.23 |  |  |
| CCCC1NC(=O)C(C(C)=O)=C1O (centres unmarked) [Compound 13] | 0.85 | 41.35 |  |  | 78.19 | 16.70 ± 0.21 | 5.21 ± 0.44 |  |  |
| CCCCCCCC1NC(=O)C(C(C)=O)=C1O (centres unmarked) [Compound 17] | 0.82 | 27.04 |  |  | 57.13 | 9.5 ± 2.36 | 7.94 ± 1.30 |  |  |
| CCCCCCCCC1NC(=O)C(C(C)=O)=C1O (centres unmarked) [Compound 18] | 0.80 | 39.98 |  |  | 67.27 | 12.00 ± 0.48 | 8.27 ± 0.61 |  |  |
| CC(=O)C1=C(O)C(Cc2ccccc2)NC1=O (centres unmarked) [Compound 19] | 0.79 | 40.07 |  |  | 63.43 | 24 ± 4.00 | 1.24 ± 0.10 |  |  |
| CCCC(c1ccccc1)C1NC(=O)C(C(C)=O)=C1O (centres unmarked) [Compound 20] | 0.82 | 43.40 |  |  | 57.23 | 21.1 ± 3.56 | 1.57 ± 0.04 |  |  |
| CC=CC1NC(=O)C(C(C)=O)=C1O (centres unmarked) [Compound 21] | 0.77 | 42.25 |  |  | 62.34 | 16.5 ± 1.30 | 2.89 ± 0.14 |  |  |
| CC(=O)C1=C(O)C(C)(C)NC1=O [Compound 22] | 0.82 | 38.05 |  |  | 56.16 | 20.0 ± 1.63 | 1.76 ± 0.24 |  |  |
| CCCCC1(C)NC(=O)C(C(C)=O)=C1O (centres unmarked) [Compound 29] |  |  |  |  |  | 12.1 ± 3.75 | 5.77 ± 1.15 |  |  |
| CCCC(C)C1NC(=O)C(C(C)=O)=C1O (centres unmarked) [Compound 31] |  |  |  |  |  | 10.8 ± 2.00 | 5.93 ± 1.35 |  |  |
| CC(=O)C1=C(O)C(CCC(=O)O)NC1=O (centres unmarked) [Compound 35] |  |  |  |  |  | 26.4 ± 0.12 | 1.27 ± 0.02 |  |  |
| CC(=O)C1=C(O)C(CC(N)=O)NC1=O (centres unmarked) [Compound 36] |  |  |  |  |  | 21.9 ± 0.23 | 1.54 ± 0.07 |  |  |

| Compound | Fv/Fm [1] | PSII Activity of oxygen evolution (photosystem II) [uMO2/mgChlh] | Avg. diameter of the spot after 24 h (Crofton weed) [mm] | Time of disease spot to occur (Crofton weed) [h] | Activity of Hill Reaction (Hill reaction) [uMO2/mgChlh] | Time of Disease spot (Crofton weed) [h] | Average diameter of spot after 24 h (Crofton weed) [mm] | Time (Crofton weed) [h] | Average diameter of the damage spot after 24 h (Crofton weed) [mm] |
| --- | --- | --- | --- | --- | --- | --- | --- | --- | --- |
| CC(=O)C1=C(O)C(CCC(N)=O)NC1=O (centres unmarked) [Compound 37] |  |  |  |  |  | 24 ± 0.08 | 1.64 ± 0.25 |  |  |
| CCC(=O)C1=C(O)C(C(C)CC)NC1=O (centres unmarked) [Compound 42] |  |  |  |  |  | 19.4 ± 2.50 | 2.24 ± 0.45 |  |  |
| CCC(C)C1NC(=O)C(C(=O)NCc2ccccc2)=C1O (centres unmarked) [Compound 49] |  |  |  |  |  | 23.2 ± 2.86 | 2.47 ± 0.08 |  |  |
| CCC1NC(=O)C(C(C)=O)=C1O.[K] (centres unmarked) [f, Potassium salt of 3-acetyl-5-ethyl-4-hydroxy-1H-pyrrol-2(5H)-one] |  |  |  |  |  |  |  | 14.2 ± 2.00 | 3.72 ± 0.28 |
| CCCC(C)C1NC(=O)C(C(C)=O)=C1[O-].[Na+] (centres unmarked) [m, Sodium salt of 3-acetyl-4-hydroxy-5-(Pentan-2-yl)-1H-pyrrol-2(5H)-one] |  |  |  |  |  |  |  | 8.5 ± 2.00 | 8.27 ± 1.72 |
| Ammonium salt of 3-acetyl-5-ethyl-4-hydroxy-1H-pyrrol-2(5H)-one |  |  |  |  |  |  |  | 10.3 ± 1.50 | 4.97 ± 1.01 |
| Calcium salt of 3-acetyl-5-ethyl-4-hydroxy-1H-pyrrol-2(5H)-one [g] |  |  |  |  |  |  |  | 18.7 ± 3.00 | 2.29 ± 0.19 |
| Copper salt of 3-acetyl-5-ethyl-4-hydroxy-1H-pyrrol-2(5H)-one |  |  |  |  |  |  |  | 21.6 ± 3.05 | 1.22 ± 0.25 |
| Iron salt of 3-acetyl-5-ethyl-4-hydroxy-1H-pyrrol-2(5H)-one [k] |  |  |  |  |  |  |  | 17.2 ± 0.95 | 1.72 ± 0.15 |
| Magnesium (II) salt of 3-acetyl-5-ethyl-4-hydroxy-1H-pyrrol-2(5H)-one |  |  |  |  |  |  |  | 17.5 ± 1.50 | 2.88 ± 0.10 |
| Manganese salt of 3-acetyl-5-ethyl-4-hydroxy-1H-pyrrol-2(5H)-one [i] |  |  |  |  |  |  |  | 14.3 ± 3.15 | 3.24 ± 0.33 |
| Sodium salt of 3-acetyl-4-hydroxy-1H-pyrrol-2(5H)-one |  |  |  |  |  |  |  | 26 ± 7.30 | 1.34 ± 0.08 |
| Sodium salt of 3-acetyl-4-hydroxy-5-(prop-1-enyl)-1H-pyrrol-2(5H)-one |  |  |  |  |  |  |  | 16.8 ± 1.85 | 2.42 ± 0.05 |
| Sodium salt of 3-acetyl-4-hydroxy-5-methyl-1H-pyrrol-2(5H)-one [b] |  |  |  |  |  |  |  | 19.5 ± 0.5 | 2.21 ± 0.18 |
| Sodium salt of 3-acetyl-4-hydroxy-5-propyl-1H-pyrrol-2(5H)-one |  |  |  |  |  |  |  | 10.2 ± 2.50 | 5.07 ± 0.11 |
| Sodium salt of 3-acetyl-5-ethyl-4-hydroxy-1H-pyrrol-2(5H)-one |  |  |  |  |  |  |  | 14.5 ± 1.8 | 3.11 ± 0.54 |
| Zinc salt of 3-acetyl-4-hydroxy-5,5-dimethyl-1H-pyrrol-2(5H)-one |  |  |  |  |  |  |  | 18.2 ± 2.50 | 2.63 ± 0.06 |
| Zinc salt of 3-acetyl-5-ethyl-4-hydroxy-1H-pyrrol-2(5H)-one [j] |  |  |  |  |  |  |  | 15.1 ± 4.00 | 2.91 ± 0.02 |
